The values that follow come from patent EP0362304B1, “CHEMICAL SENSORS EMPLOYING CATALYTIC ANTIBODIES” (IGEN, INC., priority 1987, dated 1989).

The Km is the substrate concentration at which the rate is half of its maximum. By kcat is commonly meant the maximal rate divided by the concentration of active sites.

For assay [1], the system named is IgG designated catalytic antibody 48G7, monoclonal antibody elicited to the tetrahedral nitrophenyl phosphonate transition-state analogue (2). Briefly: Antibody-catalysed hydrolysis of carbonate (1), followed by the increase in absorbance at 400 nm (nitrophenolate ion release), Michaelis-Menten kinetics. Type of assay: biochemical, BALB/C mice. How it is done: BALB/C mice were immunized with the BSA-phosphonate conjugate emulsified in complete Freund's adjuvant. A fusion was carried out by standard methods using SP2/0 myeloma as the fusion partner. IgG was purified from ascites fluid by affinity chromatography on protein A coupled Sepharose 4B and dialyzed exhaustively against reaction buffer.
The rates of hydrolysis of carbonate I (1) in the presence (kobsd) and the absence (kun) of 4.4 µM antibody were determined as a function of substrate concentration. Carbonate hydrolysis was followed in 10 mM Tris-HCl, pH 8.5 at 30°C, by following the increase in absorbance at 400 nm due to nitrophenolate ion release.

The test system of a further assay is catalytic antibody 48G7. Briefly: pH-based catalytic antibody biosensor: differential electrode response to MpNPC after incubation in transition state analog. In kind it is biochemical, BALB/C mice. The note with it: electrodes incubated in 50 µM TSA; pH 8.5 buffer (0.14 M KCl, 0.01 M Tris, 0.02% sodium azide); substrate MpNPC. The source says:
A pH-based catalytic antibody biosensor incorporating catalytic antibodies as enzyme mimics in a configuration similar to that of enzyme electrodes was used to measure the pH change resulting from the catalyzed hydrolysis of methyl p-nitrophenylcarbonate (MpNPC). […] The catalytic antibody 48G7 is synthesized and its catalytic activity identified in accordance with the methodology described in Example 1.
The catalytic antibody 48G7 produces a relatively small rate of acceleration as compared to natural enzymes. Consequently, the observed pH difference is small but is easily measurable in a reproducible manner. […] Two miniature pH electrodes 152 and 154 were employed and the difference between the two was monitored. […]
The electrical potential of the two miniature pH electrodes 152 and 154 (Microelectrodes Inc., model MI-404) was monitored relative to a single Ag/AgCl reference electrode 156 in an nonthermostated vessel 158 as shown in Fig. 13 using two Keithley 617 electrometers 160. […]
The reference electrode 156 and the two pH electrodes 152 and 154 were placed in 2.5 ml of a pH 8.5 buffer (0.14 M KCl, 0.01 M Tris, 0.02% sodium azide) and allowed to stabilize for […]. […] The response to MpNPC was measured after approximately 12 hours in solution (not shown) but the remainder of the measurements were performed after approximately 36 hours in solution. […]

The mark [2] stands for this setting: 4.4 µM antibody, 10 mM Tris-HCl, pH 8.5 at 30°C, first pair of values printed.
The mark [3] stands for this setting: second pair of values printed ("This IgG", designated 48G7).

For `COC(=O)Oc1ccc([N+](=O)[O-])cc1` [carbonate (1), methyl p-nitrophenylcarbonate], in assay [1] (setting [2]), the Km came out at 660 µM and the kcat is 0.0233 ± 0.00333 s⁻¹. For the same compound, the “rate acceleration above background” value in assay [1] (antibody-catalysed versus background rate) is 16,000. Besides, in assay [1] (setting [3]), the Km stood at 350 µM and the kcat was 0.483 s⁻¹.

With `COP(=O)(O)Oc1ccc([N+](=O)[O-])cc1` [transition state analog (TSA), methyl p-nitrophenylphosphate], the “inhibition of catalysis (MpNPC hydrolysis)” value in the assay on catalytic antibody 48G7 is recorded as “effectively inhibits the catalysis”.
